Data on one sequence can be found in publication PMC12108424, “Genetically Modified Mesenchymal Stromal/Stem Cells as a Delivery Platform for SE-33, a Cathelicidin LL-37 Analogue: Preclinical Pharmacokinetics and Tissue Distribution in C57BL/6 Mice” (Antibiotics, 2025).

One data set deals with E. coli. The arrangement: method as in PMID 38391576, doi:10.1134/S1068162019020158, PMID 40072070. To be noted: in vitro; cited from earlier work.
Data set [1] is described as follows: in vivo. The arrangement: species or system C57BL/6 mice. The note with it: iv. The procedure:
(§1) The studies were conducted on sexually mature male C57BL/6 mice with an average body weight of 20 g and an age of 8 weeks. The animals were sourced from the “Andreevka”, branch of the Scientific Center of Biomedical Technologies of the Russian Federal Medical and Biological Agency (Russia). The mice underwent a 14-day acclimatization period. The animals were housed in individually ventilated polysulfone cages ISO RAIR 4 × 8 (LabProducts, Aberdeen, WA, USA) with Rehofix MK2000 corn cob bedding (J. Rettenmaier and Söhne GmbH, Rosenberg, Germany). The animal housing environment followed a 12-h light/dark cycle with an ad libitum access to water and standard laboratory feed. The group assignment was based on body weight, ensuring a no more than 10% deviation from the average group weight. All experimental procedures were approved by the Local Ethics Committee (LEC) of the Federal State Budgetary Educational Institution of Higher Education “Privolzhsky Research Medical University” Ministry of Health of the Russian Federation (Protocol No. 06, dated 29 April 2022) and adhered to the guidelines for the care and use of laboratory animals.
(§2) Immediately prior to administration, WJ-MSC-SE33 cells were resuspended in a saline solution (0.9% NaCl). The mice were divided into groups (n = 48) and fasted for 8 h before intravenous injection. The injection volume was calculated based on body weight. Single-dose administrations were 1 × 10^5 cells/mouse (0.5 × 10^7 cells/kg), 2.5 × 10^5 cells/mouse (1.25 × 10^7 cells/kg), and 5 × 10^5 cells/mouse (2.5 × 10^7 cells/kg) (Figure 4B). Repeated administrations were conducted on days 1, 3, and 5 at a dose of 1 × 10^5 cells/mouse (Figure 4B).
Blood samples were collected from the subclavian artery at 4, 8, 12, 16, 20, 24, 36, and 48 h post-administration (n = 6 animals/time point) (Figure 1B). […] The 0 h time point represents samples obtained from animals prior to WJ-MSC-SE33 injection (pre-dose baseline). SE-33 concentrations at baseline were established as 0 μg/mL since the peptide was undetectable (<LLOQ) in all pre-dose samples, confirming the absence of endogenous expression. Blood samples were collected into tubes without an anticoagulant and centrifuged at 3000 rpm for 15 min at room temperature. Then, serum samples were isolated and placed in cryovials. Samples of peripheral tissues (lungs, liver, and spleen) were collected at similar time points. Blood and tissue samples were stored at −79 °C.
(§3) Thawed mouse serum was centrifuged at 12,000 rpm for 30 min using a MiniSpin centrifuge (Eppendorf, Hamburg, Germany). The supernatant was collected and diluted 20-fold with 20 mM TrisHCl (pH 7.8). For peripheral tissue samples, 100 mg of thawed tissue was weighed using Sartorius CPA225D scales (Sartorius, Göttingen, Germany) and homogenized in 1.6 mL of acidified ethanol (0.5 mL HCl in 1000 mL ethanol) using a Heidolph Diax 100 homogenizer (Heidolph Instruments, Schwabach, Germany) at 25,000 rpm on ice for 1 min. The homogenate was centrifuged at 12,000 rpm for 30 min. The supernatant was collected and diluted 20-fold with 20 mM Tris-HCl (pH 7.8).
(§4) To construct a protein that specifically binds to the SE-33 peptide ([…]), a complementary sequence with a high affinity to the SE-33 was calculated using the Antimicrobial Peptide Database APD3 [94, 95]. The sequence was cloned into a plasmid and expressed in E. coli strain BL21(DE3). The protein was then isolated and purified using a Ni-NTA column. Purified protein was conjugated with Epoxy-activated Sepharose 6B, creating a sorbent (Epoxy-Protein Sepharose) with a binding capacity of 240 μg/mL for the SE-33 peptide.
A column containing 5 mL of Epoxy-Protein Sepharose was equilibrated with 20 mM TrisHCl (pH 7.8). The sample was applied to the column via a 2 mL loop, followed by washing with 25 mL of 20 mM TrisHCl (pH 7.8). The SE-33 peptide was eluted with 5 mL of 75 mM NaCl in 20 mM TrisHCl (pH 7.8) without fractionation. […]

The next data set deals with fungi and yeast. The arrangement: method as in PMID 38391576, doi:10.1134/S1068162019020158, PMID 40072070. To be noted: in vitro; cited from earlier work.
Data set [2] is described as follows: in vivo. The arrangement: species or system C57BL/6 mice. Here is the method:
as §1, §2
The 0 h time point represents samples obtained from animals prior to WJ-MSC-SE33 injection (pre-dose baseline). SE-33 concentrations at baseline were established as 0 μg/mL since the peptide was undetectable (<LLOQ) in all pre-dose samples, confirming the absence of endogenous expression. Blood samples were collected into tubes without an anticoagulant and centrifuged at 3000 rpm for 15 min at room temperature. Then, serum samples were isolated and placed in cryovials. Samples of peripheral tissues (lungs, liver, and spleen) were collected at similar time points. Blood and tissue samples were stored at −79 °C.
as §3, §4
A column containing 5 mL of Epoxy-Protein Sepharose was equilibrated with 20 mM TrisHCl (pH 7.8). The sample was applied to the column via a 2 mL loop, followed by washing with 25 mL of 20 mM TrisHCl (pH 7.8). The SE-33 peptide was eluted with 5 mL of 75 mM NaCl in 20 mM TrisHCl (pH 7.8) without fractionation. The eluate enriched with the SE-33 peptide was subjected to solid-phase extraction. […]

Details of data set [3]: species or system C57BL/6 mice. To be noted: mouse, in vivo. The procedure:
The tissue availability and distribution of SE-33 peptide were further assessed using the following parameters: fT: tissue penetration factor. This parameter reflects the ratio of drug exposure in tissues relative to plasma or serum and is used to assess antimicrobial drug distribution at the target site and to guide therapy selection. In this study, fT was calculated using the following equation:(4) fT=AUC0–t(tissue)/AUC0–t(serum) This approach, commonly applied in evaluating drug distribution within extravascular compartments, particularly for antimicrobial agents, is consistent with its established definition in pharmacokinetics as the tissue-to-plasma AUC ratio [99, 100].

The subject of the next data set is S. aureus. Also noted: method as in PMID 38391576, doi:10.1134/S1068162019020158, PMID 40072070. To be noted: in vitro; cited from earlier work.

Where no end group is shown, it is not given here.

The term AUC denotes concentration integrated over time. Lower therefore signals low exposure. The term AUC(0-inf) denotes total exposure, with the tail of the curve extrapolated. A higher AUC(0-inf) goes with more exposure. For orientation: Cmax means the peak of the concentration-time curve. For orientation: Tmax means the time from dosing to the highest level. As a reminder, the half-life is the time needed for the level to fall by half in the phase considered. A word on the MRT: it is a mean duration of stay, worked out from the concentration-time curve. Broadly, the AUC(0-t) is exposure summed from dosing to a finite time, without extrapolation to infinity. High values mean more exposure, low ones less exposure. As to “SETRPVLNRLFDKIRQVRKEFGKIKEKSRKFM [SE-33]”, the “minimum bactericidal concentration (MBC)” value in the data set with E. coli was 20 µg/mL. In addition, in the data set “in vivo [1]” (male, C57BL/6, mouse), the AUC stood at 8210 ng·h/mL, the AUC(0-inf) was found to be 8050 ng·h/mL, the highest concentration (Cmax) was determined as 233 ng/mL and the Tmax came to 8 h. Further, the half-life in “in vivo [1]” (male, C57BL/6, mouse) is 1390 min. The same sequence yielded an MRT in the data set “in vivo [1]” (male, C57BL/6, mouse, MRT4–24) of 34.2 h. This sequence registered an MRT in the data set “in vivo [1]” (male, C57BL/6, mouse, MRT4–∞) of 31.4 h. Further, the Tmax in “in vivo [1]” (mouse) amounted to 4 h. The “minimum inhibitory concentration (MIC)” value in the data set with fungi and yeast is 31.2 to 1024 µg/mL. Further, in “in vivo [2]” (male, C57BL/6, mouse, iv), the exposure AUC(0-t) came to 2010 ng·h/mL and the time of peak concentration (Tmax) was 8 h. This sequence also gave a Cmax in “in vivo [2]” (male, C57BL/6, mouse, iv, Cmax) of 142 ng/mL. The MRT in the data set “in vivo [2]” (male, C57BL/6, mouse, iv, MRT0–∞) amounted to 10.4 h. The half-life in “in vivo [2]” (male, C57BL/6, mouse, iv, T1/2 (elimination half-life)) was 288 min. For the same sequence, the “persistence of the peptide in tissues” value in “in vivo [2]” (mouse) is reported as “up to 48 h”. Moreover, in the data set “in vivo [2]” (mouse, iv), the “SE-33 concentration at 8 h” value is 0.043 μg/mL, the “SE-33 level in liver exceeding that in the lungs” value stood at 4 fold and the “SE-33 levels within 2 h post-intravenous administration” value is “no detectable SE-33 levels”. Also, in data set [3], the “increase of fT relative to the highest single dose” value worked out at 20.0% and the “rise of fT” value was found to be 25.0%. For the same sequence, the “minimum inhibitory concentration (MIC)” value with S. aureus was 12.5 µg/mL.
